Reference: patent publication US4483794A, “Analogs of neurohypophysial hormones” (Ceskoslovenska akademie ved, priority 1983, dated 1984)
*1 amine or outer side, *2 acyl side, *3 side chain or, on linkers, in order; H or OH if unused. Where a SMILES comes first, the peptide text is derived from it. Bridges are numbered along the chain shown (N, C = ends). [ ]: non-standard residue; d: D form. dPhe(4-Et) = CCc1ccc(C[C@@H](N)C(=O)O)cc1; dPhe(4-Me) = Cc1ccc(C[C@@H](N)C(=O)O)cc1; hCys = N[C@@H](CCS)C(=O)O; X1 = O=C(CC[*:2])[*:1]

Tests used:
isolated rat uterus = biological target: T1, isolated rat uterus (Rattus norvegicus, UniProt P70536); experiment: pA2 values as tested with an isolated rat uterus (oxytocin as agonist); assay type: cell-based; settings: negative decadic logarithm of an inhibitory constant
T1 construct: isolated rat uterus; from tissue; host or cells: isolated rat uterus
T1 sequence (P70536 1-388): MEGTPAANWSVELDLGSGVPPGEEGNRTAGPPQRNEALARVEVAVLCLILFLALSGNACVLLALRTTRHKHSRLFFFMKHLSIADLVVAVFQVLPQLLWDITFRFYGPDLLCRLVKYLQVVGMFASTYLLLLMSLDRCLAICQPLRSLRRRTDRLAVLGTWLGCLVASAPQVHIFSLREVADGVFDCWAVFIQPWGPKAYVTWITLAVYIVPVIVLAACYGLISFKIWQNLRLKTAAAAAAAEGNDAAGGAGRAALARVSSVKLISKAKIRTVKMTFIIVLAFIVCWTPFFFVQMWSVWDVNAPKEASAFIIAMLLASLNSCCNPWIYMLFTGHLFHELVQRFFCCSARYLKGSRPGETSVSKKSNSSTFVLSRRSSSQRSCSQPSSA
Description: Each of the above-identified analogs evidenced strong inhibitory effects. Table I, set forth below, set forth numerical values of the biological activity of these analogs wherein pA2 represents the negative decadic logarithm of an inhibitory constant in accordance with the equation [formula] wherein B is the concentration of the inhibitor in moles per liter, A50 is the concentration of an agonistic compound (oxytocin) which results in 50% of the maximum effect, and A50B is the concentration of an agonistic compound yielding 50% of the maximum effect in the presence of an inhibitor of concentration B (Eggena P., Schwartz I. L., and Walter R.: J. Gen. Physiol. 52, 465 (1968).
pA2 values as tested with an isolated rat uterus

[1] = biological target: T2, biological effect of vasopressin (blood pressure) (Rattus norvegicus, UniProt P30560); experiment: suppression of the biological effect of vasopressin, i.e. of blood pressure in a despinalized rat; settings: in vivo, blood volume 6.7 ml/100g of rat weight assumed
T2 construct: blood pressure in a despinalized rat; from tissue; host or cells: despinalized rat in vivo (vasculature)
Method: ^(a) the negative decadic logarithm of the analog concentration which
leads to suppression of the biological effect of vasopressin (i.e. of
blood pressure in a despinalized rat) to 50% of the original response; th
blood volume of rat (6.7 ml/100g of rat weight) is assumed in the in vivo
test (Nestor J. J., Ferger M. F., du Vigneaud V.: J. Med. Chem. 18, 284

[2] = tested on: uterotonic activity of oxytocin; experiment: inhibitory effect toward the uterotonic activity of oxytocin in the in vivo test with a uterus; settings: compared with the equipotential dose of [2D-p-ethylphenylalanine] oxytocin
Description: uterotonic activity of oxytocin in the in vivo test with a uterus as
compared with the equipotential dose of the compound ([
2D-p-ethylphenylalanine] oxytocin).

[3] = tested on: uterotonic and pressor activity of natural hormones; experiment: inhibitory effects of the analogs toward natural hormones (general statements); settings: in words

T2 sequence (P30560 whole entry): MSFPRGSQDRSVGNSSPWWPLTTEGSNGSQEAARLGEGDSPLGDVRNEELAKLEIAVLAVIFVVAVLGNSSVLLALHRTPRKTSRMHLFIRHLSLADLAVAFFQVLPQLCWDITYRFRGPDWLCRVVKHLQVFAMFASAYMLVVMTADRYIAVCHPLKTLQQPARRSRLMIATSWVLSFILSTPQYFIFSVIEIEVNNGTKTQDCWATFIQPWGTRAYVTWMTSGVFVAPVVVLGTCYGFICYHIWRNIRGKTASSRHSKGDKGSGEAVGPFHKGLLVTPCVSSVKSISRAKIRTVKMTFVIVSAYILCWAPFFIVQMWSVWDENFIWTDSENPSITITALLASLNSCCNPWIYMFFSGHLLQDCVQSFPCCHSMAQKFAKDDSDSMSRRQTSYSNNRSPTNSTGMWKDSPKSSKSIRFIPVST

SMILES	Kb (isolated rat uterus) [nM]	further results
CC[C@H](C)[C@@H]1NC(=O)[C@@H](Cc2ccccc2)NC(=O)CCSCC[C@@H](C(=O)N2CCC[C@H]2C(=O)N[C@@H](CC(C)C)C(=O)NCC(N)=O)NC(=O)[C@H](CC(N)=O)NC(=O)[C@H](CCC(N)=O)NC1=O [Ia, [2-D-Phenylalanine]deamino-6-carba-oxytocin] (HELM PEPTIDE1{[dF].I.Q.N.[O=C([C@H](CCS[*:3])N[*:1])[*:2]].P.L.G.[am]}|CHEM1{[O=C(CC[*:2])[*:1]]}$PEPTIDE1,CHEM1,1:R1-1:R1|PEPTIDE1,CHEM1,5:R3-1:R2$$$V2.0)	5.5	–
CCc1ccc(C[C@H]2NC(=O)CCSSC[C@@H](C(=O)N3CCC[C@H]3C(=O)N[C@@H](CC(C)C)C(=O)NCC(N)=O)NC(=O)[C@H](CC(N)=O)NC(=O)[C@H](CCC(N)=O)NC(=O)[C@H]([C@@H](C)CC)NC2=O)cc1 [Ie, [2-D-p-Ethylphenylalanine]deamino-oxytocin] (HELM PEPTIDE1{[O=C(CCS[*:3])[*:2]].[CCc1ccc(C[C@@H](N[*:1])C(=O)[*:2])cc1].I.Q.N.C.P.L.G.[am]}$PEPTIDE1,PEPTIDE1,1:R3-6:R3$$$V2.0)	–	pA2 (isolated rat uterus): 8.06
CCc1ccc(C[C@H]2NC(=O)[C@@H](N)CSSC[C@@H](C(=O)N3CCC[C@H]3C(=O)N[C@@H](CC(C)C)C(=O)NCC(N)=O)NC(=O)[C@H](CC(N)=O)NC(=O)[C@H](CCC(N)=O)NC(=O)[C@H]([C@@H](C)CC)NC2=O)cc1 [If, [2-D-p-Ethylphenylalanine]oxytocin] (HELM PEPTIDE1{C.[CCc1ccc(C[C@@H](N[*:1])C(=O)[*:2])cc1].I.Q.N.C.P.L.G.[am]}$PEPTIDE1,PEPTIDE1,1:R3-6:R3$$$V2.0)	7.08	–
CCc1ccc(C[C@H]2NC(=O)[C@@H](N)C(C)(C)SSC[C@@H](C(=O)N3CCC[C@H]3C(=O)N[C@@H](CC(C)C)C(=O)NCC(N)=O)NC(=O)[C@H](CC(N)=O)NC(=O)[C@H](CCC(N)=O)NC(=O)[C@H]([C@@H](C)CC)NC2=O)cc1 [Ig, [1-Penicilamine, 2-D-p-ethylphenylalanine]oxytocin] (HELM PEPTIDE1{[Pen].[CCc1ccc(C[C@@H](N[*:1])C(=O)[*:2])cc1].I.Q.N.C.P.L.G.[am]}$PEPTIDE1,PEPTIDE1,1:R3-6:R3$$$V2.0)	8.13	–
CCc1ccc(C[C@H]2NC(=O)[C@@H](N)CSSC[C@@H](C(=O)N3CCC[C@H]3C(=O)N[C@@H](CCCCN)C(=O)NCC(N)=O)NC(=O)[C@H](CC(N)=O)NC(=O)[C@H](CCC(N)=O)NC(=O)[C@H](Cc3ccccc3)NC2=O)cc1 [Ih, [2-D-p-Ethylphenylalanine, 8-lysine]vasopressin] (HELM PEPTIDE1{C.[CCc1ccc(C[C@@H](N[*:1])C(=O)[*:2])cc1].F.Q.N.C.P.K.G.[am]}$PEPTIDE1,PEPTIDE1,1:R3-6:R3$$$V2.0)	–	pA2 (negative decadic logarithm of the analog concentration which leads to suppression of the biological effect of vasopressin to 50% of the original response) [1]: 7.05
CCc1ccc(C[C@H]2NC(=O)[C@@H](NC(=O)CNC(=O)CNC(=O)CN)CSSC[C@@H](C(=O)N3CCC[C@H]3C(=O)N[C@@H](CC(C)C)C(=O)NCC(N)=O)NC(=O)[C@H](CC(N)=O)NC(=O)[C@H](CCC(N)=O)NC(=O)[C@H]([C@@H](C)CC)NC2=O)cc1 [Ii, N^δ -Glycyl-glycyl-glycyl[2-D-p-ethylphenylalanine]oxytocin] (HELM PEPTIDE1{G.G.G.C.[CCc1ccc(C[C@@H](N[*:1])C(=O)[*:2])cc1].I.Q.N.C.P.L.G.[am]}$PEPTIDE1,PEPTIDE1,4:R3-9:R3$$$V2.0)	724	inhibitory effect toward the uterotonic activity of oxytocin, duration [2]: prolonged inhibitory effect
CC[C@H](C)[C@@H]1NC(=O)[C@@H](Cc2ccc(C)cc2)NC(=O)CCSCC[C@@H](C(=O)N2CCC[C@H]2C(=O)N[C@@H](CC(C)C)C(=O)O)NC(=O)[C@H](CC(N)=O)NC(=O)[C@H](CCC(N)=O)NC1=O [Ij, [2-D-p-methylphenylalanine, 9-desglycinamide]deamino-6-carbaoxytocin] ([dPhe(4-Me)]IQN[hCys]PL-OH; linker N-5 via X1)	1.58	inhibitory effect [3]: retained

The next lines start with results.

Kb (isolated rat uterus) [nM]	SMILES	further results
28.8	CCOc1ccc(C[C@H]2NC(=O)CCSCC[C@@H](C(=O)N3CCC[C@H]3C(=O)N[C@@H](CC(C)C)C(=O)NCC(N)=O)NC(=O)[C@H](CC(N)=O)NC(=O)[C@H](CCC(N)=O)NC(=O)[C@H]([C@@H](C)CC)NC2=O)cc1 [Ib, [2-D-o-Ethyltyrosine]deamino-6-carba-oxytocin] ([dY](Et)IQN[hCys]PLG-NH2; linker N-5 via X1)	–
1.86	CC[C@H](C)[C@@H]1NC(=O)[C@@H](Cc2ccc(C)cc2)NC(=O)CCSCC[C@@H](C(=O)N2CCC[C@H]2C(=O)N[C@@H](CC(C)C)C(=O)NCC(N)=O)NC(=O)[C@H](CC(N)=O)NC(=O)[C@H](CCC(N)=O)NC1=O [Ic, [2-D-p-Methylphenylalanine]deamino-6-carba-oxytocin] ([dPhe(4-Me)]IQN[hCys]PLG-NH2; linker N-5 via X1)	–
1.86	CCc1ccc(C[C@H]2NC(=O)CCSCC[C@@H](C(=O)N3CCC[C@H]3C(=O)N[C@@H](CC(C)C)C(=O)NCC(N)=O)NC(=O)[C@H](CC(N)=O)NC(=O)[C@H](CCC(N)=O)NC(=O)[C@H]([C@@H](C)CC)NC2=O)cc1 [Id, [2-D-p-Ethylphenylalanine]deamino-6-carba-oxytocin] ([dPhe(4-Et)]IQN[hCys]PLG-NH2; linker N-5 via X1)	–
